Here are results for 2 molecules from patent US6433022B1, “Spermicide” (Medical Research Council, priority 1997, dated 2002).

For one assay, the system named is HIV-1. Briefly: Virucidal activity using cell-free virus (viral adhesion assay, syncytia in C8166 cells). The format is cell-based. Here is the method:
A simple, microtitre plate assay was developed (viral adhesion assay) in which the virus was attached to the solid phase by Pol-L-lysine Hydrobromide (PLL, Sigma). Sterile 24 and 96 well plates (Nunc) were coated for 1 hour with 50 μl of 50 μg/ml PLL at room temperature. When using 96 well microtitre plates the outer ring of wells were left uncoated and filled with 250 μl of sterile PBS to counteract the effects of evaporation. The coated wells were washed twice with sterile PBS using a Denley-4 plate washer. 25 μl of RPMI 1640 medium containing HIV-1 (50×TCID50) was added to the wells and incubated for 1 hour at room temperature. The plate was again washed twice with sterile PBS. 25 μl of varying concentrations of the candidate virucide were added to each well for 15 minutes and the virucide removed with two washes of sterile PBS. The T-lymphocyte cell line C8166, at a concentration of 4×10^4 cells in 300Fl RPMI 1640, were added to each well so that the cells formed a uniform monolayer on the adherent virus. After incubation for 72 hours, the number of syncytia in the monolayer gave an accurate measure of the amount of infectious virus present. Wells untreated with virucide were used as positive controls. […] The assay allowed the efficient removal of the candidate virucides or disinfectant and allowed the compound to be assessed for accurately determined contact times.

For the next assay, the system named is spermatozoa. Briefly: Effect on lipid peroxidation in spermatozoa. In kind it is cell-based, human. Particulars: exposure to compound vs control.
Assay [1] concerns spermatozoa in seminal plasma. Briefly: Lucigenin-dependent chemiluminescence detection of quinone-induced superoxide. In kind it is cell-based, human. Particulars: increasing doses incl. 25 μM and 50 μM; FIG. 1b. An excerpt:
ROS generation was monitored by luminometry employing the chemiluminescence probes lucigenin and luminol. Lucigenin is sensitive to the presence of superoxide anion and was used to monitor the free radical responses to NAD(P)H. Luminol, when used in conjunction with horseradish peroxidase (HRP; Sigma Type Vl, 288 U/mg), detects mainly hydrogen peroxide (Aitken et al., 1992) and was used to monitor the responses of spermatozoa to PMA (phorbol 12-myristate, 13-acetate), an activator of protein kinase C. NAD(P)H could not be used with the luminol-peroxidase system because of the generation of high background signals, presumably due to the oxidase reactions of HRP. Photon emission was monitored at 37° C. using the Bermold 9505B luminometer (Berthold, Wilbad, Germany) featuring 6 electronically compensated, peltier cooled, photomultipliers and the results expressed as counts/minute. For both of the probes used, 400 μl of spermatozoa, at a concentration of 10×10^6/ml, were placed in a 3 ml plastic, flat-bottomed plastic tube. For luminol-based reactions, the spermatozoa were suspended in BWW supplemented with Albuminar, but when lucigenin was used the Albuminar was replaced with 1 mg/ml polyvinyl alcohol. […] The luminometer results were recorded as continuous traces and as integrated photon counts over a fixed period of time (5 min). […]

Assay [2] concerns sperm, seminal plasma and serum. Briefly: Luminol/peroxidase-dependent chemiluminescence detection of quinone-induced H2O2. In kind it is cell-based, human. Conditions: 50 μM. An excerpt:
(§1) ROS generation was monitored by luminometry employing the chemiluminescence probes lucigenin and luminol. Lucigenin is sensitive to the presence of superoxide anion and was used to monitor the free radical responses to NAD(P)H. Luminol, when used in conjunction with horseradish peroxidase (HRP; Sigma Type Vl, 288 U/mg), detects mainly hydrogen peroxide (Aitken et al., 1992) and was used to monitor the responses of spermatozoa to PMA (phorbol 12-myristate, 13-acetate), an activator of protein kinase C. NAD(P)H could not be used with the luminol-peroxidase system because of the generation of high background signals, presumably due to the oxidase reactions of HRP. Photon emission was monitored at 37° C. using the Bermold 9505B luminometer (Berthold, Wilbad, Germany) featuring 6 electronically compensated, peltier cooled, photomultipliers and the results expressed as counts/minute. For both of the probes used, 400 μl of spermatozoa, at a concentration of 10×10^6/ml, were placed in a 3 ml plastic, flat-bottomed plastic tube. For luminol-based reactions, the spermatozoa were suspended in BWW supplemented with Albuminar, but when lucigenin was used the Albuminar was replaced with 1 mg/ml polyvinyl alcohol. A 4 μl aliquot of a 25 mM stock solution of either luminol or lucigenin m-dimethyl sulphoxide (DMSO), was then added to the cell suspension, resulting in a final probe concentration of 250 μM. For the measurement of hydrogen peroxide generation by intact cells, luminol-dependent chemiluminescence was enhanced by addition of 8 μl of HRP, freshly prepared at a concentration of 2 mg/ml in PBS, to give a final HRP concentration of 11.52 U/ml. The luminometer results were recorded as continuous traces and as integrated photon counts over a fixed period of time (5 min).
Luminol alone measures H2O2; however when used alongside HRP, it can measure the production of H2O2 internally and externally. The sperm were prepared by standard percoll gradient and resuspended in seminal plasma or BWW/PVA to a concentration of 10 million cells per ml. […]

Another assay concerns human sperm. Briefly: Effect of quinones on sperm motility. In kind it is cell-based. As for the experimental part:
Following the preparation of spermatozoa by standard Percoll gradient they were resuspended in homologous seminal plasma to a concentration of 20 million per ml, immediately prior to the beginning of the experiment. 50 μl of the sperm suspension was placed in an eppendorf tube, and the quinone was either added alone or in combination with other reagents, for example, KI, HRP (Horseradish Peroxidase), BHT (butylated hydroxytoluene) etc. depending on the experiment. The volume was made up to 100 μl with BWW/PVA.
The quinone was always the final reagent to be added. […] The sample was gently agitated and 10 μl was placed on a slide and a motility was scored. The aim was to score a motility approximately 20 seconds following the addition of the quinone. There were two controls set up, one motility count taken at the beginning of the experiment (initial control) and one motility count taken at the end of the experiment (final control). The controls consisted of 50 μl of the sperm suspension followed by the addition of 50 μl BWW/PVA. The reason for having two controls was to observe if any changes in sperm motility had occurred simply as a factor of time, i.e. from residing in seminal plasma for a long duration. At all times during the experiment, the spermatozoa were incubated in a hot box at 24° C. All motility experiments were carried out on sperm suspended in seminal plasma unless otherwise stated.

The test system of assay [3] is human spermatozoa. Briefly: Nicotinamide dinucleotide-induced superoxide generation, lucigenin-dependent chemiluminescence. The format is cell-based.
From the text: as §1
The ability of human spermatozoa to generate superoxide anion in response to NADPH was monitored by lucigenin-dependent chemiluminescence and compared with its non-phosphorylated and non-reduced counterparts, i.e. NADH, NADP^+ and NAD^+. In addition, the stimulatory properties of an isomer of NADPH, usually non-active in reductive biosynthesis, were examined. All pyridine nucleotides were made up to the required concentration in PBS immediately prior to use. Stock solutions of the nucleotides were made up at concentrations 10 fold higher than the required final working concentration, to allow for a 10 fold dilution on addition to the suspensions of spermatozoa.

The subject of assay [4] is human spermatozoa. Briefly: Percentage motility of spermatozoa exposed to NADPH. Conditions: doses 0.625 to 10 mM, at least 3 hr. The format is cell-based.
Assay [5] has as its system human spermatozoa. Briefly: Quantification of superoxide anion generation by SOD-inhibitable reduction of cytochrome C. In kind it is cell-based. Particulars: 2 mM, n=5. As for the experimental part:
Superoxide anion generation was quantified spectrophotometrically via the superoxide-dependent reduction of cytochrome C (McCord and Fridovich, 1969). Spermatozoa were used at an increased concentration of 10×10^7/ml in BWW supplemented with PVA (1 mg/ml). An aliquot (400 μl) of this sperm suspension was placed in a 1 ml disposable, plastic cuvette and 50 μl of cytochrome C (Type Vl from horse heart), was added to give a final working concentration of 100 μM. The reference cuvette contained the same ingredients, except that 50 μl of SOD was added to give final concentration of 196 U/ml. Absorbance was monitored at 550 nm and the SOD-inhibitable superoxide generation calculated using an extinction coefficient for reduced cytochrome C of ε=21.1 mM^−1cm^−1.

Regarding `O=C1C=CC(=O)c2ccccc21` [1,4-naphthoquinone], in the assay with HIV-1 (absence of human semen, 15 minutes contact), the “antiviral activity against HIV-1” value is reported as “dose-dependent antiviral activity”. Further, in the assay on HIV-1 (presence of human semen vs absence), the “antiviral activity against HIV-1, effect of semen” value was “potentiated by an order of magnitude”. Besides, in the assay with spermatozoa, the “lipid peroxidation in spermatozoa” value is “lipid peroxidation did not occur”. The “superoxide burst generated by spermatozoa in seminal plasma” value in assay [1] was “Increasing doses of this compound led to a corresponding increase in superoxide production”. The “H2O2 production in seminal plasma and serum” value in assay [2] (no spermatozoa) was “no such activity”. The “H2O2 production, spermatozoa in BWW” value in assay [2] (on addition of the reagent) was “instantaneous significant burst of H2O2”. Besides, the “time of peak of slow secondary increase in H2O2 after initial exposure” value in assay [2] (spermatozoa in BWW) was 25 to 30 min. In addition, the mean motility score in the assay with human sperm (50 μM quinone, human sperm) is on record as 0.143%. In the assay on human sperm (concentrations ranging from 25 μM to 100 μM), the sperm immobilisation result was “completely immobilised”. The IC50 in the assay with human sperm (human sperm in seminal plasma, motility scored approximately 20 seconds after addition, read-out: ID50, dose-dependent inhibition of sperm motility) is around 10 µM.
Take `NC(=O)C1=CN([C@@H]2O[C@H](COP(=O)(O)OP(=O)(O)OC[C@H]3O[C@@H](n4cnc5c(N)ncnc54)[C@H](OP(=O)(O)O)[C@@H]3O)[C@@H](O)[C@H]2O)C=CC1` [NADPH, Dihydronicotinamide adenine dinucleotide phosphate]: the “lucigenin-dependent chemiluminescent response (superoxide anion generation)” value in the assay with human spermatozoa [3] (500 μM nucleotide) is recorded as “burst of ROS generation”. Besides, in the assay on human spermatozoa [3] (addition to spermatozoa, lucigenin, FIG. 5a), the “increase in the chemiluminescent signal” value is reported as 10 fold. For the same molecule, the “percentage motility of the spermatozoa” value in the assay with human spermatozoa [4] is “remained unchanged”. Besides, the “superoxide generation rate during sudden burst” value in the assay with human spermatozoa [5] is on record as 99.52+/−9.12 pmol.min^−1. 10^6 spermatozoa. Also, the “superoxide release rate after stabilisation” value in the assay with human spermatozoa [5] (thereafter) is 7.65+/−0.97 pmol.min^−1. 10^6 spermatozoa.
